Measured values published in patent publication US20110269628A1, “Pesticidal Mixtures” (priority 2009, published 2011).

Assays:
[1] = tested on: Imidazolinone tolerant soybeans; experiment: Stomatal conductance gs (infrared gas analyzer), soybean pot experiment; assay type: in vivo; settings: 1 DAA; application at BBCH 14; pyraclostrobin 0.3 L/ha (250 g/L), imazapyr 0.075 L/ha (480 g/L)
[2] = tested on: Imidazolinone tolerant soybeans; experiment: Chlorophyll content (SPAD chlorophyll-meter), soybean pot experiment; assay type: in vivo; settings: 1 DAA; application at BBCH 14; pyraclostrobin 0.6 L/ha (250 g/L), imazapyr 0.3 L/ha (480 g/L)

Row | SMILES | OE = observed efficacy (%), increase of stomatal conductance vs untreated control [1] | SC = Stomatal Conductance (gs) [1] | Chlorophyll Content (SPAD) [2] | OE = observed efficacy (%), increase of chlorophyll content vs untreated control [2]
1 | CC(C)C1(C)N=C(c2ncccc2C(=O)O)NC1=O (centres unmarked) [Imazapyr, imazapyr] | −3.1% | 0.380 mol m^−2s^−1 | 26.5 | −1.5%
2 | COC(=O)N(OC)c1ccccc1COc1ccn(-c2ccc(Cl)cc2)n1 [Pyraclostrobin, pyraclostrobin] | 7.4% | 0.421 mol m^−2s^−1 | 27.6 | 2.6%
